Measured values taken from patent publication US9828360B2 (Array BioPharma Inc., priority 2012, dated 2017).

Assays:
Assay in all cases: KinaseProfiler off-target kinase profiling
Format in all cases: biochemical
Conditions in all cases: 10 μM, ATP near Km
DYRK2 = biological target: T1, DYRK2 (Homo sapiens, UniProt Q92630)
T1 construct: purchased Millipore, Inc. (KinaseProfiler service)
Summary of the method: (§1)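 Each kinase is assayed with ATP at roughly its own Km, and the compound is added at 10 μM. Two replicates are run; their average is expressed relative to untreated control (POC).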

MEK1 = biological target: T2, MEK1 (Homo sapiens, UniProt Q02750)
T2 construct: purchased Millipore, Inc. (KinaseProfiler service)
Summary of the method: as §1

BrSK2 = biological target: T3, BrSK2 (Homo sapiens, UniProt Q8IWQ3)
T3 construct: purchased Millipore, Inc. (KinaseProfiler service)
Summary of the method: as §1

Flt4 = biological target: T4, Flt4 (Homo sapiens, UniProt P35916)
T4 construct: purchased Millipore, Inc. (KinaseProfiler service)
Summary of the method: as §1

PDK1 = biological target: T5, PDK1 (Homo sapiens, UniProt O15530)
T5 construct: purchased Millipore, Inc. (KinaseProfiler service)
Summary of the method: as §1

Axl = biological target: T6, Axl (Homo sapiens, UniProt P30530)
T6 construct: purchased Millipore, Inc. (KinaseProfiler service)
Summary of the method: as §1

Plk3 = biological target: T7, Plk3 (Homo sapiens, UniProt Q9H4B4)
T7 construct: purchased Millipore, Inc. (KinaseProfiler service)
Summary of the method: as §1

EphB3 = biological target: T8, EphB3 (Homo sapiens, UniProt P54753)
T8 construct: purchased Millipore, Inc. (KinaseProfiler service)
Summary of the method: as §1

JNK2alpha2 = biological target: T9, JNK2alpha2 (Homo sapiens, UniProt P45984)
T9 construct: purchased Millipore, Inc. (KinaseProfiler service)
Summary of the method: as §1

TrkB = biological target: T10, TrkB (Homo sapiens, UniProt Q16620)
T10 construct: purchased Millipore, Inc. (KinaseProfiler service)
Summary of the method: as §1

FGFR2 = biological target: T11, FGFR2 (Homo sapiens, UniProt P21802)
T11 construct: purchased Millipore, Inc. (KinaseProfiler service)
Summary of the method: as §1

CDK7/cyclinH/MAT1 = biological target: T12, CDK7/cyclinH/MAT1 (Homo sapiens, UniProt P50613)
T12 construct: purchased Millipore, Inc. (KinaseProfiler service)
Summary of the method: as §1

BTK = biological target: T13, BTK (Homo sapiens, UniProt Q06187)
T13 construct: purchased Millipore, Inc. (KinaseProfiler service)
Summary of the method: as §1

Txk = biological target: T14, Txk (Homo sapiens, UniProt P42681)
T14 construct: purchased Millipore, Inc. (KinaseProfiler service)
Summary of the method: as §1

MRCKbeta = biological target: T15, MRCKbeta (Homo sapiens, UniProt Q9Y5S2)
T15 construct: purchased Millipore, Inc. (KinaseProfiler service)
Summary of the method: as §1

MYLK = biological target: T16, MYLK (Homo sapiens, UniProt Q15746)
T16 construct: purchased Millipore, Inc. (KinaseProfiler service)
Summary of the method: as §1

CLK2 = biological target: T17, CLK2 (Homo sapiens, UniProt P49760)
T17 construct: purchased Millipore, Inc. (KinaseProfiler service)
Summary of the method: as §1

GRK7 = biological target: T18, GRK7 (Homo sapiens, UniProt Q8WTQ7)
T18 construct: purchased Millipore, Inc. (KinaseProfiler service)
Summary of the method: as §1

KDR = biological target: T19, KDR (Homo sapiens, UniProt P35968)
T19 construct: purchased Millipore, Inc. (KinaseProfiler service)
T19 sequence (P35968 20-1356): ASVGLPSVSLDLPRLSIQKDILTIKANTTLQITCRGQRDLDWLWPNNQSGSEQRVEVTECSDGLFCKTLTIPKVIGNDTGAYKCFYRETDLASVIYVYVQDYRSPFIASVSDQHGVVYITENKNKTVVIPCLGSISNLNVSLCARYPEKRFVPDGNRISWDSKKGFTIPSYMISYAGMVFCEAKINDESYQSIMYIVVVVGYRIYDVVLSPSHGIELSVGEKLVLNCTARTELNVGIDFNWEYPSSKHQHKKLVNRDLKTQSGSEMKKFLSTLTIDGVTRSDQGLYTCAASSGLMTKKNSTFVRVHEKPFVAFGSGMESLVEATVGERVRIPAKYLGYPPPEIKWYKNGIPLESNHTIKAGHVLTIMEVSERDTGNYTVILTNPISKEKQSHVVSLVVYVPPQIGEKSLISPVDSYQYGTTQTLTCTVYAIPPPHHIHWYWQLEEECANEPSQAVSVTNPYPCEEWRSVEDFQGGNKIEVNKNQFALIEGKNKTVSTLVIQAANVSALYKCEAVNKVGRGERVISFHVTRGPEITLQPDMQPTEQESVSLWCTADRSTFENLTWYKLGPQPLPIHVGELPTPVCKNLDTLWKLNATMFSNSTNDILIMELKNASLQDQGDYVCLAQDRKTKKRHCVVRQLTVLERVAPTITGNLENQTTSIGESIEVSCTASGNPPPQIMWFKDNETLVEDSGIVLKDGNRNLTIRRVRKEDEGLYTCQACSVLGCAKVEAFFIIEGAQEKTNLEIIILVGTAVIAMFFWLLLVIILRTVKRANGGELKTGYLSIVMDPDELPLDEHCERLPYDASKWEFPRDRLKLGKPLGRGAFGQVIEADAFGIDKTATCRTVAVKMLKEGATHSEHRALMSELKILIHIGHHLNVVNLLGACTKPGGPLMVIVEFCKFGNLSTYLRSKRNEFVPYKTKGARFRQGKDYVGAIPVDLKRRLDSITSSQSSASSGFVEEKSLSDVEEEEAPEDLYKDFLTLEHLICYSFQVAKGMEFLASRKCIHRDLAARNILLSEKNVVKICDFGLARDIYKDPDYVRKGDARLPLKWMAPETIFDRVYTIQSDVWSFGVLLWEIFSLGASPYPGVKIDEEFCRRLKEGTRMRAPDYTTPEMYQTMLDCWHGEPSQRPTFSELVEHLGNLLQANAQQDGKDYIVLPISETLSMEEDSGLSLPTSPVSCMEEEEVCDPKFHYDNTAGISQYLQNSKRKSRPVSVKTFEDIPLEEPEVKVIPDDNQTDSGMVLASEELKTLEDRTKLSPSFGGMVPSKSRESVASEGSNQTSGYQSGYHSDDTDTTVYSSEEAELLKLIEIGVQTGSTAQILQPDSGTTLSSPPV
Summary of the method: as §1

IGF-1R Activated = biological target: T20, IGF-1R Activated (Homo sapiens, UniProt P08069)
T20 construct: purchased Millipore, Inc. (KinaseProfiler service)
T20 sequence (P08069 31-1367): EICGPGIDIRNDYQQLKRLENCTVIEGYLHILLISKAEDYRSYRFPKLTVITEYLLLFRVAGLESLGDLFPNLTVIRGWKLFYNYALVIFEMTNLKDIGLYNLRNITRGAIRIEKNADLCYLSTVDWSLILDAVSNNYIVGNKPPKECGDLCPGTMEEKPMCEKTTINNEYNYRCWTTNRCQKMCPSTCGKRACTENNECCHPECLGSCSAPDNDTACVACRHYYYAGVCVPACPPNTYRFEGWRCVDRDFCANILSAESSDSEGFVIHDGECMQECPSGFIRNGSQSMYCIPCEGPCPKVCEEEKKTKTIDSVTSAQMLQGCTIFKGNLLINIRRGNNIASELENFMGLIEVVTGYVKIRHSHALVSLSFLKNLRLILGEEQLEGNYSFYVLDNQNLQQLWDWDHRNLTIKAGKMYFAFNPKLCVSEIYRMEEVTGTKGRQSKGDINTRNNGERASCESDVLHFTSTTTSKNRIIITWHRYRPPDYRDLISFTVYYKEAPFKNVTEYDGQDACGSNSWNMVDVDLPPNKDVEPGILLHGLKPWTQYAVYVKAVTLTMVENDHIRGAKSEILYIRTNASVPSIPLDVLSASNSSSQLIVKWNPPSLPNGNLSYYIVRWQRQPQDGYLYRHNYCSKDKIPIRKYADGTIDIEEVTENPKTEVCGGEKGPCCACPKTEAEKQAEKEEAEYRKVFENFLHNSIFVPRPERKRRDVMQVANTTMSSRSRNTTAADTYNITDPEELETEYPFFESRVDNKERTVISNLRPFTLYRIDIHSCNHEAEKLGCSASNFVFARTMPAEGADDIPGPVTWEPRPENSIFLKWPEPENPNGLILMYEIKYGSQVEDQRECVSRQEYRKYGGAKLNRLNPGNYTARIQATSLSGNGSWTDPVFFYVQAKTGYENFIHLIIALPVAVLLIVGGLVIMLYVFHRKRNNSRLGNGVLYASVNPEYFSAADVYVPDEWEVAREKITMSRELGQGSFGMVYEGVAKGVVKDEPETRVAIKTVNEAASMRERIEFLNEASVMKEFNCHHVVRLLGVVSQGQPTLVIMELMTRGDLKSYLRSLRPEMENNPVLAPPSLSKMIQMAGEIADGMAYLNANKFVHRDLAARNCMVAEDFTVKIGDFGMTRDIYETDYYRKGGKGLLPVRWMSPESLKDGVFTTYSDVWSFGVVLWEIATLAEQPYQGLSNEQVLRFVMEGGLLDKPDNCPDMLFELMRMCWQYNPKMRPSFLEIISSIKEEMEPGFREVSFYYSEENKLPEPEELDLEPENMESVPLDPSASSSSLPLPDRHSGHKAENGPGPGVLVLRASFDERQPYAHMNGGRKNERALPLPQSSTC
Summary of the method: as §1

NEK11 = biological target: T21, NEK11 (Homo sapiens, UniProt Q8NG66)
T21 construct: purchased Millipore, Inc. (KinaseProfiler service)
Summary of the method: as §1

EphA8 = biological target: T22, EphA8 (Homo sapiens, UniProt P29322)
T22 construct: purchased Millipore, Inc. (KinaseProfiler service)
Summary of the method: as §1

MARK1 = biological target: T23, MARK1 (Homo sapiens, UniProt Q9P0L2)
T23 construct: purchased Millipore, Inc. (KinaseProfiler service)
Summary of the method: as §1

CAMK2d = biological target: T24, CAMK2d (Homo sapiens, UniProt Q13557)
T24 construct: purchased Millipore, Inc. (KinaseProfiler service)
Summary of the method: as §1

TBK1 = biological target: T25, TBK1 (Homo sapiens, UniProt Q9UHD2)
T25 construct: purchased Millipore, Inc. (KinaseProfiler service)
T25 sequence (Q9UHD2 whole entry): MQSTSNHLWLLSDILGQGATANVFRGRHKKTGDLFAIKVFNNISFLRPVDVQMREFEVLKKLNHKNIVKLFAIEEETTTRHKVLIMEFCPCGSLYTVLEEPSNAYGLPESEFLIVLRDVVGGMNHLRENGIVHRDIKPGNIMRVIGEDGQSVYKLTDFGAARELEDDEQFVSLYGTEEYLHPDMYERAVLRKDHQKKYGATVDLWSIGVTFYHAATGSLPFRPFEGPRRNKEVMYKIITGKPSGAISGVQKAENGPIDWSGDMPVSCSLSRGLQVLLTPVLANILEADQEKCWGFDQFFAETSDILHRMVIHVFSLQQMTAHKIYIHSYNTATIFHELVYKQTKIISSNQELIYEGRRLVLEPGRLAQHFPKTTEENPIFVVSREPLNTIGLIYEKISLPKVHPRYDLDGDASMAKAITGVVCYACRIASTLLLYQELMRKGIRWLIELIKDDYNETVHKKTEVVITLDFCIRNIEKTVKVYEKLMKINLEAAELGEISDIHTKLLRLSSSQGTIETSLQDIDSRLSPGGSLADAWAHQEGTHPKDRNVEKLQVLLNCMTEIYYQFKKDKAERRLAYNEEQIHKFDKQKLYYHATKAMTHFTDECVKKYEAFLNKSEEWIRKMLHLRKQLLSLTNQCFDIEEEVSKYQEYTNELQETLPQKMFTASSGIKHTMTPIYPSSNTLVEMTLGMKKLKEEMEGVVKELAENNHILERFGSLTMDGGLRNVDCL
Summary of the method: as §1

MINK = biological target: T26, MINK (Homo sapiens, UniProt Q8N4C8)
T26 construct: purchased Millipore, Inc. (KinaseProfiler service)
Summary of the method: as §1

SRPK1 = biological target: T27, SRPK1 (Homo sapiens, UniProt Q96SB4)
T27 construct: purchased Millipore, Inc. (KinaseProfiler service)
Summary of the method: as §1

DMPK = biological target: T28, DMPK (Homo sapiens, UniProt Q09013)
T28 construct: purchased Millipore, Inc. (KinaseProfiler service)
Summary of the method: as §1

HIPK1 = biological target: T29, HIPK1 (Homo sapiens, UniProt Q86Z02)
T29 construct: purchased Millipore, Inc. (KinaseProfiler service)
Summary of the method: as §1

MRCKalpha = biological target: T30, MRCKalpha (Homo sapiens, UniProt Q5VT25)
T30 construct: purchased Millipore, Inc. (KinaseProfiler service)
Summary of the method: as §1

PKCiota = biological target: T31, PKCiota (Homo sapiens, UniProt P41743)
T31 construct: purchased Millipore, Inc. (KinaseProfiler service)
T31 sequence (P41743 whole entry): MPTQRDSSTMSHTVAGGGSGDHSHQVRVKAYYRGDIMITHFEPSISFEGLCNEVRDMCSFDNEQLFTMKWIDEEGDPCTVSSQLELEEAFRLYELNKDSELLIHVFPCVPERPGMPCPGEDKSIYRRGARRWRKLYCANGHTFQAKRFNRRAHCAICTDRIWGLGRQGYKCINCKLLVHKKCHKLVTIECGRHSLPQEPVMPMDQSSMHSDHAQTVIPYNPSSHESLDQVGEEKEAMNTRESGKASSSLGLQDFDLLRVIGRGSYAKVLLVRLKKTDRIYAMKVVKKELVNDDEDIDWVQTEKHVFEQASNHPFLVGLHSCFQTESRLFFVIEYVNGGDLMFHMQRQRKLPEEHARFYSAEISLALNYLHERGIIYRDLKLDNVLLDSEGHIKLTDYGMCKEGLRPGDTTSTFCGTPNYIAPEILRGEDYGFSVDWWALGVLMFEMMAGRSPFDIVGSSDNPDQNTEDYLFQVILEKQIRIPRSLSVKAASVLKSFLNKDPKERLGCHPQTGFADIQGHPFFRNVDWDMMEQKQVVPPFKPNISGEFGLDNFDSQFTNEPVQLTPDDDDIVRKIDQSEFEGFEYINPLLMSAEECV
Summary of the method: as §1

MAPKAP-K5 = biological target: T32, MAPKAP-K5 (Homo sapiens, UniProt Q8IW41)
T32 construct: purchased Millipore, Inc. (KinaseProfiler service)
Summary of the method: as §1

TAK1 = biological target: T33, TAK1 (Homo sapiens, UniProt O43318)
T33 construct: purchased Millipore, Inc. (KinaseProfiler service)
T33 sequence (O43318 1-303 limits assumed): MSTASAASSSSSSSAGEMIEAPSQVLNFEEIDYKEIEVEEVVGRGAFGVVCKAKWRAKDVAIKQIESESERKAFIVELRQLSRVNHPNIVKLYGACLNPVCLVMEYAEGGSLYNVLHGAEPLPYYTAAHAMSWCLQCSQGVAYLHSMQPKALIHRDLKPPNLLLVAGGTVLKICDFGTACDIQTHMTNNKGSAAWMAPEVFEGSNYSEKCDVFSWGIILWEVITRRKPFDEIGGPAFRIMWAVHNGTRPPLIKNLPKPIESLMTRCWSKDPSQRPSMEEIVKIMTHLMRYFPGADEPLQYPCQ
Summary of the method: as §1

PKCtheta = biological target: T34, PKCtheta (Homo sapiens, UniProt Q04759)
T34 construct: purchased Millipore, Inc. (KinaseProfiler service)
T34 sequence (Q04759 whole entry): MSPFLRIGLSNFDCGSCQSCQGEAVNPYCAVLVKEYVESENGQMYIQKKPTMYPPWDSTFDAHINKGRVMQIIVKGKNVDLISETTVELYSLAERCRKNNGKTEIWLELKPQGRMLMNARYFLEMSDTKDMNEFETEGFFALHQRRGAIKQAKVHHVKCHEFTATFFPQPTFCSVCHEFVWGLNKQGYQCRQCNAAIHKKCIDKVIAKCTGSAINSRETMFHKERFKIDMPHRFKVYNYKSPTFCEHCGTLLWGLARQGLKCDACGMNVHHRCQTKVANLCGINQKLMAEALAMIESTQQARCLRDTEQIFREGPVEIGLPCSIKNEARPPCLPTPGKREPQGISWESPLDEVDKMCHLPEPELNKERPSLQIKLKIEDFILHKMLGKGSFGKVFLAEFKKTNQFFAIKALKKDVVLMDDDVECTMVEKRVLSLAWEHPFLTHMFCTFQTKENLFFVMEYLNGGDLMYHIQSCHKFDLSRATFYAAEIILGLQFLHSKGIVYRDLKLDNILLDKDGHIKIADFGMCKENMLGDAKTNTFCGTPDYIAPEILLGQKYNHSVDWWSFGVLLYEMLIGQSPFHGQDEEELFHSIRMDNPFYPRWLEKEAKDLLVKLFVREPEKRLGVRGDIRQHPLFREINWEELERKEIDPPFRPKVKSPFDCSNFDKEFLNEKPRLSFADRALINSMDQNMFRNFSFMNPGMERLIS
Summary of the method: as §1

CDK5/p35 = biological target: T35, CDK5/p35 (Homo sapiens, UniProt Q00535)
T35 construct: purchased Millipore, Inc. (KinaseProfiler service)
Summary of the method: as §1

EphB2 = biological target: T36, EphB2 (Homo sapiens, UniProt P29323)
T36 construct: purchased Millipore, Inc. (KinaseProfiler service)
Summary of the method: as §1

LIMK1 = biological target: T37, LIMK1 (Homo sapiens, UniProt P53667)
T37 construct: purchased Millipore, Inc. (KinaseProfiler service)
Summary of the method: as §1

Fgr = biological target: T38, Fgr (Homo sapiens, UniProt P09769)
T38 construct: purchased Millipore, Inc. (KinaseProfiler service)
Summary of the method: as §1

CDK9/cyclinT1 = biological target: T39, CDK9/cyclinT1 (Homo sapiens, UniProt P50750)
T39 construct: purchased Millipore, Inc. (KinaseProfiler service)
Summary of the method: as §1

ULK3 = biological target: T40, ULK3 (Homo sapiens, UniProt Q6PHR2)
T40 construct: purchased Millipore, Inc. (KinaseProfiler service)
Summary of the method: as §1

Abl-P = biological target: T41, Abl-P (Homo sapiens, UniProt P00519)
T41 construct: purchased Millipore, Inc. (KinaseProfiler service)
Summary of the method: as §1

Avg POC (DYRK2): 103.5% of control | Avg POC (MEK1): 100% of control | Avg POC (BrSK2): 119.5% of control | Avg POC (Flt4): 103% of control | Avg POC (PDK1): 85.5% of control | Avg POC (Axl): 113% of control | Avg POC (Plk3): 113.5% of control | Avg POC (EphB3): 119% of control | Avg POC (JNK2alpha2): 93.5% of control | Avg POC (TrkB): 9% of control | Avg POC (FGFR2): 106.5% of control | Avg POC (CDK7/cyclinH/MAT1): 112.5% of control | Avg POC (BTK): 97.5% of control | Avg POC (Txk): 85.5% of control | Avg POC (MRCKbeta): 140.5% of control | Avg POC (MYLK): 107% of control | Avg POC (CLK2): 116% of control | Avg POC (GRK7): 122% of control | Avg POC (KDR): 104% of control | Avg POC (IGF-1R Activated): 102% of control | Avg POC (NEK11): 105% of control | Avg POC (EphA8): 122.5% of control | Avg POC (MARK1): 113% of control | Avg POC (CAMK2d): 99% of control | Avg POC (TBK1): 96.5% of control | Avg POC (MINK): 117% of control | Avg POC (SRPK1): 115.5% of control | Avg POC (DMPK): 106% of control | Avg POC (HIPK1): 119.5% of control | Avg POC (MRCKalpha): 113.5% of control | Avg POC (PKCiota): 120% of control | Avg POC (MAPKAP-K5): 108% of control | Avg POC (TAK1): 104% of control | Avg POC (PKCtheta): 108.5% of control | Avg POC (CDK5/p35): 109.5% of control | Avg POC (EphB2): 99.5% of control | Avg POC (LIMK1): 104% of control | Avg POC (Fgr): 111.5% of control | Avg POC (CDK9/cyclinT1): 111.5% of control | Avg POC (ULK3): 100% of control | Avg POC (Abl-P): 147.5% of control
SMILES: COCCN1C[C@@H](NC(=O)Nc2sc(C(C)C)nc2-c2ccccc2)[C@H](c2ccccc2)C1 [Example 48, 1-(2-isopropyl-4-phenylthiazol-5-yl)-3-((3S,4R)-1-(2-methoxyethyl)-4-phenylpyrrolidin-3-yl)urea]
